# Test results reported in patent US7655629B2, “Peptides and their use for the treatment of HIV infections” (priority 2002, dated 2010).
# Read-outs that look alike come from different tables or passages of the source. Positions of bridges follow the written chain, without caps; N, C: chain ends. Non-standard residues stand in square brackets, D forms with d. Residues, ends and D or L forms follow the SMILES beside them. Tic = O=C(O)[C@@H]1Cc2ccccc2CN1; dTic = O=C(O)[C@H]1Cc2ccccc2CN1
# Key:
# [1] = system: X4-tropic HIV-1 NL4-3; settings: read-out: IC50 NL4-3; P4-CCR5 cells, HIV-1 NL4-3, peptide 2 h before infection, readout three days after infection
# How it was run: (§1)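 P4-CCR5 cells (CD4, CCR5, CXCR4, HIV-1 promoter-driven β-galactosidase) pretreated 2 h with peptide, then infected with virus containing 1 ng p24 antigen and incubated overnight. Cells washed and cultured without peptide; three days post-infection infectivity read by chemiluminescent β-galactosidase assay, in quintuplicate.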
# [2] = system: HIV-1 NL4-3 DTV; settings: read-out: IC50 DTV, P4-CCR5 cells, peptide 2 h before infection, readout three days after infection
# How it was run: as §1
# [3] = dog, plasma
# [4] = cynomolgus monkey, plasma
# [5] = human, plasma
# [6] = rat, plasma
Compound,IC50 [1],IC50 [2],half-life [3],half-life [4],half-life [5],half-life [6]
CC[C@H](C)[C@H](NC(=O)[C@H](C)NC(=O)[C@H](CCC(=O)O)NC(=O)[C@@H](N)CC(C)C)C(=O)N1CCC[C@H]1C(=O)N[C@H]1CSSC[C@@H](C(=O)N[C@H](C(=O)N[C@@H](Cc2ccccc2)C(=O)N[C@@H](Cc2ccccc2)C(=O)NCC(=O)N[C@@H](CCCCN)C(=O)N2CCC[C@H]2C(=O)N[C@@H](Cc2ccccc2)C(=O)N[C@H](C(=O)N[C@@H](Cc2ccccc2)C(=O)O)C(C)C)C(C)C)NC(=O)[C@@H]2CCCN2C(=O)[C@@H]2CCCN2C(=O)[C@H]([C@@H](C)CC)NC(=O)[C@H](CO)NC1=O [VIR-344] (H-LEAIPCSIPPCVFFGKPFVF-OH; disulfide 6-11),348 nM,448 nM,6.6 h,10.5 h,7 h,0.1 h
CC[C@H](C)[C@H](NC(=O)[C@H](C)NC(=O)[C@H](CCC(=O)O)NC(=O)[C@@H](N)CC(C)C)C(=O)N1CCC[C@H]1C(=O)N[C@H]1CSSC[C@@H](C(=O)N[C@@H](Cc2ccccc2)C(=O)N[C@@H](CC(C)C)C(=O)N[C@@H](Cc2ccccc2)C(=O)NCC(=O)N[C@@H](CCCCN)C(=O)N2CCC[C@H]2C(=O)N[C@@H](Cc2ccccc2)C(=O)N[C@H](C(=O)N[C@@H](Cc2ccccc2)C(=O)O)C(C)C)NC(=O)[C@@H]2CCCN2C(=O)[C@@H]2CCCN2C(=O)[C@H]([C@@H](C)CC)NC(=O)[C@H](CO)NC1=O [VIR-345] (H-LEAIPCSIPPCFLFGKPFVF-OH; disulfide 6-11),298 nM,376 nM,10.7 h,5.1 h,5.6 h,0.1 h
"CC[C@H](C)[C@H](NC(=O)[C@H](C)NC(=O)[C@H](CCC(=O)O)NC(=O)[C@@H](N)CC(C)C)C(=O)N1CCC[C@H]1C(=O)N[C@H]1CSSC[C@@H](C(=O)N[C@H](C(=O)NCC(=O)N[C@@H](Cc2ccccc2)C(=O)NCC(=O)N[C@@H](CCCCN)C(=O)N2CCC[C@H]2C(=O)N[C@@H](Cc2ccccc2)C(=O)N[C@H](C(=O)N[C@@H](Cc2ccccc2)C(=O)O)C(C)C)C(C)C)NC(=O)[C@H]2CCCN2C(=O)[C@@H]2CCCN2C(=O)[C@H]([C@@H](C)CC)NC(=O)[C@H](CO)NC1=O [VIR-348, LEAIPCSIPpCVGFGKPFVF] (H-LEAIPCSIP[dP]CVGFGKPFVF-OH; disulfide 6-11)",326 nM,541 nM,9.3 h,3 h,3.3 h,0.2 h
"CC[C@H](C)[C@H](NC(=O)[C@H](C)NC(=O)[C@H](CCC(=O)O)NC(=O)[C@@H](N)CC(C)C)C(=O)N1CCC[C@H]1C(=O)N[C@H]1CSSC[C@@H](C(=O)N[C@H](C(=O)N[C@@H](Cc2ccccc2)C(=O)N[C@@H](Cc2ccccc2)C(=O)N[C@@H](CC(N)=O)C(=O)N[C@@H](CCCCN)C(=O)N2CCC[C@H]2C(=O)N[C@@H](Cc2ccccc2)C(=O)N[C@H](C(=O)N[C@@H](Cc2ccccc2)C(=O)O)C(C)C)C(C)C)NC(=O)[C@H]2CCCN2C(=O)[C@@H]2CCCN2C(=O)[C@H]([C@@H](C)CC)NC(=O)[C@H](CO)NC1=O [VIR-352, LEAIPCSIPpCVFFNKPFVF] (H-LEAIPCSIP[dP]CVFFNKPFVF-OH; disulfide 6-11)",340 nM,624 nM,23.7 h,6.4 h,3.6 h,0.2 h
"CC[C@H](C)[C@H](NC(=O)[C@H](C)NC(=O)[C@H](CCC(=O)O)NC(=O)[C@@H](N)CC(C)C)C(=O)N1CCC[C@H]1C(=O)N[C@H]1CSSC[C@@H](C(=O)N[C@@H](Cc2ccccc2)C(=O)N[C@@H](CC(C)C)C(=O)N[C@@H](Cc2ccccc2)C(=O)N[C@@H](CC(N)=O)C(=O)N[C@@H](CCCCN)C(=O)N2CCC[C@H]2C(=O)N[C@@H](Cc2ccccc2)C(=O)N[C@H](C(=O)N[C@@H](Cc2ccccc2)C(=O)O)C(C)C)NC(=O)[C@H]2CCCN2C(=O)[C@@H]2CCCN2C(=O)[C@H]([C@@H](C)CC)NC(=O)[C@H](CO)NC1=O [VIR-353, LEAIPCSIPpCFLFNKPFVF] (H-LEAIPCSIP[dP]CFLFNKPFVF-OH; disulfide 6-11)",225 nM,181 nM,15.2 h,5 h,4 h,0.2 h
"CC[C@H](C)[C@H](NC(=O)[C@H](CC(=O)O)NC(=O)[C@H](CCC(=O)O)NC(=O)[C@@H](N)CC(C)C)C(=O)N1CCC[C@H]1C(=O)N[C@H]1CSSC[C@@H](C(=O)N[C@H](C(=O)N[C@@H](C)C(=O)N[C@@H](Cc2ccccc2)C(=O)N[C@@H](CC(N)=O)C(=O)N[C@@H](CCCCN)C(=O)N2CCC[C@H]2C(=O)N[C@@H](Cc2ccccc2)C(=O)N[C@H](C(=O)N[C@@H](Cc2ccccc2)C(=O)O)C(C)C)C(C)C)NC(=O)[C@H]2CCCN2C(=O)[C@@H]2CCCN2C(=O)[C@H]([C@@H](C)CC)NC(=O)[C@H](CO)NC1=O [VIR-357, LEDIPCSIPpCVAFNKPFVF] (H-LEDIPCSIP[dP]CVAFNKPFVF-OH; disulfide 6-11)",497 nM,704 nM,71.5 h,13.2 h,23.3 h,0.6 h
"CC[C@H](C)[C@H](NC(=O)[C@H](CCCCN)NC(=O)[C@H](CCC(=O)O)NC(=O)[C@@H](N)CC(C)C)C(=O)N1CCC[C@H]1C(=O)N[C@H]1CSSC[C@@H](C(=O)N[C@H](C(=O)N[C@@H](C)C(=O)N[C@@H](Cc2ccccc2)C(=O)N[C@@H](CC(N)=O)C(=O)N[C@@H](CCCCN)C(=O)N2CCC[C@H]2C(=O)N[C@@H](Cc2ccccc2)C(=O)N[C@H](C(=O)N[C@@H](Cc2ccccc2)C(=O)O)C(C)C)C(C)C)NC(=O)[C@H]2CCCN2C(=O)[C@@H]2CCCN2C(=O)[C@H]([C@@H](C)CC)NC(=O)[C@H](CO)NC1=O [VIR-358, LEKIPCSIPpCVAFNKPFVF] (H-LEKIPCSIP[dP]CVAFNKPFVF-OH; disulfide 6-11)",706 nM,944 nM,16 h,4.7 h,5.9 h,0.4 h
"CC[C@H](C)[C@H](NC(=O)[C@H](C)NC(=O)[C@H](CCC(=O)O)NC(=O)[C@@H](N)CC(C)C)C(=O)N1CCC[C@H]1C(=O)N[C@@H](CCSC)C(=O)NCC(=O)N[C@H](C(=O)N1CCC[C@H]1C(=O)N1CCC[C@@H]1C(=O)N[C@@H](CCC(=O)O)C(=O)N[C@H](C(=O)N1Cc2ccccc2C[C@@H]1C(=O)N[C@@H](Cc1ccccc1)C(=O)N[C@@H](CC(N)=O)C(=O)N[C@@H](CCCCN)C(=O)N1CCC[C@H]1C(=O)N[C@@H](Cc1ccccc1)C(=O)N[C@H](C(=O)N[C@@H](Cc1ccccc1)C(=O)O)C(C)C)C(C)C)[C@@H](C)CC [VIR-448, LEAIPMGIPpEV(D-Tic)FNKPFVF] (H-LEAIPMGIP[dP]EV[dTic]FNKPFVF-OH)",318 nM,325 nM,18 h,4.5 h,3.1 h,0.2 h
"CC[C@H](C)[C@H](NC(=O)[C@H](C)NC(=O)[C@H](CCC(=O)O)NC(=O)[C@@H](N)CC(C)C)C(=O)N1CCC[C@H]1C(=O)N[C@@H](CCSC)C(=O)NCC(=O)N[C@H](C(=O)N1CCC[C@H]1C(=O)N1CCC[C@@H]1C(=O)N[C@@H](CCC(=O)O)C(=O)N[C@H](C(=O)N1Cc2ccccc2C[C@H]1C(=O)N[C@@H](Cc1ccccc1)C(=O)N[C@@H](CC(N)=O)C(=O)N[C@@H](CCCCN)C(=O)N1CCC[C@H]1C(=O)N[C@@H](Cc1ccccc1)C(=O)N[C@H](C(=O)N[C@@H](Cc1ccccc1)C(=O)O)C(C)C)C(C)C)[C@@H](C)CC [VIR-449, LEAIPMGIPpEV(L-Tic)FNKPFVF] (H-LEAIPMGIP[dP]EV[Tic]FNKPFVF-OH)",274 nM,240 nM,42.2 h,4.2 h,4.8 h,0.2 h
"CC[C@H](C)[C@H](NC(=O)[C@H](CCCCN)NC(=O)[C@H](CCC(=O)O)NC(=O)[C@@H](N)CC(C)C)C(=O)N1CCC[C@H]1C(=O)N[C@@H](CCSC)C(=O)N[C@@H](CO)C(=O)N[C@H](C(=O)N1CCC[C@H]1C(=O)N1CCC[C@@H]1C(=O)N[C@@H](CCC(=O)O)C(=O)N[C@H](C(=O)N1Cc2ccccc2C[C@@H]1C(=O)N[C@@H](Cc1ccccc1)C(=O)N[C@@H](CC(N)=O)C(=O)N[C@@H](CCCCN)C(=O)N1CCC[C@H]1C(=O)N[C@@H](Cc1ccccc1)C(=O)N[C@H](C(=O)N[C@@H](Cc1ccccc1)C(=O)O)C(C)C)C(C)C)[C@@H](C)CC [VIR-454, LEKIPMSIPpEV(D-Tic)FNKPFVF] (H-LEKIPMSIP[dP]EV[dTic]FNKPFVF-OH)",464 nM,1090 nM,15.6 h,4.4 h,4.4 h,0.2 h
"CC[C@H](C)[C@H](NC(=O)[C@H](CCCCN)NC(=O)[C@H](CCC(=O)O)NC(=O)[C@@H](N)CC(C)C)C(=O)N1CCC[C@H]1C(=O)N[C@@H](CCSC)C(=O)N[C@@H](CO)C(=O)N[C@H](C(=O)N1CCC[C@H]1C(=O)N1CCC[C@@H]1C(=O)N[C@@H](CCC(=O)O)C(=O)N[C@H](C(=O)N1Cc2ccccc2C[C@H]1C(=O)N[C@@H](Cc1ccccc1)C(=O)N[C@@H](CC(N)=O)C(=O)N[C@@H](CCCCN)C(=O)N1CCC[C@H]1C(=O)N[C@@H](Cc1ccccc1)C(=O)N[C@H](C(=O)N[C@@H](Cc1ccccc1)C(=O)O)C(C)C)C(C)C)[C@@H](C)CC [VIR-455, LEKIPMSIPpEV(L-Tic)FNKPFVF] (H-LEKIPMSIP[dP]EV[Tic]FNKPFVF-OH)",134 nM,353 nM,8.6 h,6.8 h,5.8 h,0.3 h
